Experimental data reported in article PMC11472310, “Distinctive Immune Signatures Driven by Structural Alterations in Desmuramylpeptide NOD2 Agonists” (Journal of Medicinal Chemistry, 2024).

Tested on: CD8+ T cells cocultured with BMDCs
Test: BMDC antigen cross-presentation to ovalbumin-specific CD8+ T cells (OT I)
Format: cell-based, C57BL/6 mouse
Settings: BMDCs pretreated 10 μM + ovalbumin 50 μg/mL 18 h, coculture 72 h; OVA-treated cells 23.3%
Experimental: For this study, we narrowed down the selection of suitable desmuramylpeptides even further. In order to assess the adjuvant potential of selected desmuramylpeptides with regard to their effect on DC-mediated activation of CD4^+ and CD8^+ T cells, we conducted an ex vivo antigen-presentation assay utilizing C57BL/6 mouse bone marrow-derived DCs (BMDCs). Upon stimulation with desmuramylpeptides at 10 μM, in conjunction with ovalbumin soluble protein (50 μg/mL), BMDCs were cocultured with carboxyfluorescein succinimidyl ester (CFSE)-labeled naïve ovalbumin-specific CD4^+ or CD8^+ T cells, which were isolated from splenocytes of OT II and OT I transgenic mice, respectively. […] Additionally, we investigated how the priming of T cells elicited by the tested compounds impacted the cytokine profiles secreted in BMDC/T-cell cocultures.
CD4^+ and CD8^+ T cells were isolated from splenocytes of OT II and OT I transgenic mice using CD4^+ and CD8^+ T cell isolation kits (Miltenyi Biotec, Germany) following the manufacturer’s instructions. The purified T cells were labeled with CFSE (Invitrogen, Carlsbad, CA, USA) and subsequently washed. Next, 5 × 10^4 T cells were combined with 1 × 10^4 BMDCs/well (pretreated with desmuramylpeptides at 10 μM and 50 μg/mL ovalbumin [Invivogen, San Diego, CA, USA] for 18 h and then washed). Following a 72-h incubation period at 37 °C with 5% CO2, supernatants were harvested and stored at −80 °C for cytokine analysis. The cells were then stained with Fixable viability dye eFluor 780 (eBioscience, Thermo Fisher Scientific, MA, USA), anti-Thy1.2-PE-Cy7 antibodies (Biolegend, San Diego, CA, USA), anti-CD8-eFluor450 antibodies (eBioscience), anti-CD4-eFluor450 antibodies (eBioscience), and anti-CD25-APC antibodies (Biolegend) before analysis using a Beckman Coulter Cytoflex S flow cytometer (CA, USA) and FlowJo software (Tree Star, Inc., Ashland, OR, USA). Live Thy1.2+/CD4+ and Thy1.2+/CD8+ cells were assessed for CFSE dilution and CD25 expression. […] Statistical significance was determined using paired t tests.

Row | Structure (SMILES) | fraction of activated and proliferating CD8+ T-cells (CD25+, CFSE low) [%]
1 | CCCC(=O)Oc1ccc(/C=C/C(=O)NCC(=O)N[C@H](C(=O)N[C@H](CCC(=O)OCC)C(=O)OCC)C(C)C)cc1OC [Compound 3, Diethyl ((E)-3-(4-(Butyryloxy)-3-methoxyphenyl)acryloyl)glycyl-L-valyl-D-glutamate] | 29.3
2 | CC/C=C\C/C=C\C/C=C\C/C=C\C/C=C\CCCC(=O)Oc1ccc(/C=C/C(=O)NCC(=O)N[C@H](C(=O)N[C@H](CCC(=O)OCC)C(=O)OCC)C(C)C)cc1OC [Compound 23, Diethyl ((E)-3-(4-(((5Z,8Z,11Z,14Z,17Z)-Icosa-5,8,11,14,17-pentaenoyl)oxy)-3-methoxyphenyl)acryloyl)glycyl-L-valyl-D-glutamate] | 34.1
